# Assay results reported in patent EP0258134A1, “Therapeutical compositions containing benzhydryl thiomethane derivatives” (LABORATOIRE L. LAFON, priority 1986, dated 1988).
# Marks after values point to notes of the source that are not given here.
# How the values were obtained:
# Format in all cases: in vivo
# souris [1] = experiment: Pretoxicity, i.p., 3 mice per dose
# Protocol: Le composé CRL 41 334, en suspension dans une solution de gomme arabique, a été administré par voie intrapéritonéale sous un volume de 20 ml/kg chez la souris (mâle, NMRI, C.E.R. Janvier) et de 5 ml/kg chez le rat (mâle, CD₁; SPRAGUE DAWLEY, Charles River).
# I - PRETOXICITE ( 3 souris par dose)
# Le CRL 41 055, en suspension dans une solution de gomme arabique, a été administré par voie intrapéritonéale sous un volume de 20 ml/kg chez la souris (mâle, NMRI, Evic Ceba).
# Prétoxicite (3 souris par dose)
# Le CRL 40 956, en suspension dans une solution de gomme arabique a été administré par voie intrapéritonéale sous un volume de 20 ml/kg chez la souris (mâle, NMRI, Evic Céba) et de 5 ml/kg chez le rat (mâle, CD₁, Sprague Dawley, Charles River).
# Prétoxicité ( 3 souris par dose)
# rat [2] = experiment: Interaction with apomorphine, rat; details: 16 et 64 mg/kg, apomorphine 0,5 mg/kg s.c.
# Protocol: Le composé CRL 41 334 est administré à des lots de 6 rats une demi-heure avant l'injection sous-cutanée de 0,5 mg/kg d'apomorphine.
# Le CRL 40 956 est administré à des lots de 6 rats une demi-heure avant l'injection sous cutanée de 0,5 mg/kg d'apomorphine.
# homme = experiment: Therapeutic use in humans; details: homme, voie orale, 4 fois 50 mg par jour
# souris [3] = experiment: Behavioural despair (forced immersion); details: souris, 8, 32 et 128 mg/kg
# Description: Une demi-heure après avoir reçu le composé CRL 41 334, des lots de 6 souris (mâles, CD₁, Charles River) sont placés dans un bécher rempli d'eau sur une hauteur de 6 cm. On note la durée totale d'immobilité entre la 2ème et la 6ème minutes suivant l'immersion.
# Une demi-heure après avoir reçu le CRL 40 956, des lots de 10 souris (mâles CD₁ Charles River) sont plongées dans une enceinte réduite remplie d'eau sur une hauteur de 6 cm. On note la durée totale d'immobilité entre la 2ème et la 6ème minute suivant l'immersion.
# souris [4] = experiment: Spontaneous motility (actimeter)
# Protocol: Après avoir reçu le composé CRL 41 334, les souris sont placées en actimètre où leur motilité est enregistrée pendant 30 minutes.
# Une demi-heure après avoir reçu le CRL 41 055, les souris (6 par dose, 12 témoins) sont placées en actimètre où leur motilité est enregistrée pendant 30 minutes.
# Une demi-heure après avoir reçu le CRL 40 956, les souris (6 par dose, 12 témoins) sont placées en actimètre ou leur motilité est enregistrée pendant 30 minutes.
# rat [5] = experiment: Search for stereotyped movements, rat
# Description: Des lots de 6 rats reçoivent une injection du composé CRL 41 334 ou d'amphétamine, puis sont immédiatement placés dans des boîtes de petites dimensions (20 x 10 x 10 cm) où leur comportement stéréotypeé est coté de 0 à 3 jusqu'à extinction de l'effet.
# souris [6] = experiment: Intergroup aggressiveness; details: 32 et 128 mg/kg
# Protocol: Après avoir séjourné pendant 3 semaines dans chacune des moitiés d'une cage séparées par une cloison opaque, des groupes de 3 souris reçoivent le composé CRL 41 334. Une demi-heure plus tard, les deux groupes d'une même cage sont réunis par retrait de la cloison et on note le nombre de combats qui surviennent en 10 minutes. Le test est pratiqué pour moitié sur les souris habituelles (NMRI, C.E.R. Janvier) et pour moitié sur des souris NMRI (Iffa Credo).
# Après avoir séjourné pendant 3 semaines dans chacune des moitiés d'une cage séparée par une cloison opaque, des groupes de 3 souris reçoivent le CRL 40 956. Une demi-heure plus tard, les deux groupes d'une même cage sont réunis par retrait de la cloison et on note le nombre de combats qui surviennent en 10 minutes.
# [7] = system: souris femelles de souche OF₁; experiment: Delayed hypersensitivity reaction to sheep red blood cells; details: for Ind. Activité / % d'augmentation du coussinet (mm) m: voie orale; for % d'augmentation du coussinet (mm) m: trois jours avant immunisation
# Description: Selon la méthode de Miller, Lagrange et Mackaness ("Immunopotentiation with BCG II modulation of the response to sheep red blood cells", Journal of the National Cancer Institute 1973, 51, 5, 1669 - 1676).
# Le composé à tester est administré par voie orale a des souris femelles de souche OF₁ trois jours avant immunisation.
# Les résultats sont exprimés en pourcentage d'augmentation du coussinet plantaire.
# souris [8] = experiment: Interaction with apomorphine, mouse
# Protocol: Des lots de 6 souris reçoivent le composé CRL 41 334 une demi-heure avant l'injection sous-cutanée d'apomorphine, à la dose de 1 ou 16 mg/kg. • a) Apomorphine 1 mg/kg • b) Apomorphine 16 mg/kg
# souris [9] = experiment: Motility reduced by hypoxic aggression
# Protocol: Une demi-heure après avoir reçu le composé CRL 41 334, les souris (10 par dose, 20 témoins) sont soumises à une anoxie hypobare aigüe (dépression de 60 mmHg en 90 secondes, détente de 45 secondes), puis elles sont placées en actimètre où leur motilité est enregistrèe pendant 10 minutes.
structure (smiles),measurement,setting,value
"NC(=O)CSC(c1ccc(F)cc1)c1ccc(F)cc1 [CRL 41 334, 2-(4,4ʹ-difluorobenzhydrylthio)acétamide]",symptômes,souris [1]; 128 mg/kg i.p.,"sédation, puis excitation 2 heures après"
same,symptômes,souris [1]; 256 mg/kg i.p.,sédation suivie d'excitation 2 heures après l'injection
same,convulsions,"souris [1]; 256 mg/kg i.p., à 15 minutes",3/3
same,symptômes,souris [1]; 512 mg/kg i.p.,démarche titubante
same,convulsions,"souris [1]; 512 mg/kg i.p., pendant les 10 premières minutes",3/3
same,mortalité,"souris [1]; 512 mg/kg i.p., 1/3 en 15 minutes et 2/3 en 24 heures",3/3
same,stéréotypies induites par l'apomorphine,rat [2],potentialise
same,traitement des dépressions des brûlés,homme,bons résultats
same,durée de l'immobilité,souris [3],diminue la durée de l'immobilité
same,motilité spontanée,"souris [4]; souris, 128 mg/kg, 30 minutes avant passage dans l'actimètre",cet effet n'apparaît plus
same,motilité spontanée,"souris [4]; souris, 8, mais surtout 32 et 128 mg/kg, 2 heures avant passage dans l'actimètre",augmentation de la motilité spontanée
same,motilité spontanée,"souris [4]; souris, 32 et 64 mg/kg, 30 minutes avant passage dans l'actimètre",augmentation de la motilité
same,durée des stéréotypies,rat [5]; 128 mg/kg,> 420 min
same,stéréotypies atteignent leur maximum,rat [5]; 128 mg/kg,120 to 150 min
same,intensité des stéréotypies,"rat [5]; 64 et 128 mg/kg, compared with amphétamine",comparable à celle obtenue respectivement avec 1 et 2 mg
same,nombre de combats,souris [6],diminue le nombre de combats
same,Ind. Activité,"[7]; Exp 1, 0,1 mg/kg","1,15"
same,% d'augmentation du coussinet (mm) m,"[7]; Exp 1, 0,1 mg/kg","10,6%"
same,Ind. Activité,"[7]; Exp 1, 1 mg/kg","1,10"
same,% d'augmentation du coussinet (mm) m,"[7]; Exp 1, 1 mg/kg","10,2%"
same,Ind. Activité,"[7]; Exp 1, 10 mg/kg","1,29"
same,% d'augmentation du coussinet (mm) m,"[7]; Exp 1, 10 mg/kg","12,0%"
same,Ind. Activité,"[7]; Exp 1, 100 mg/kg","1,59"
same,% d'augmentation du coussinet (mm) m,"[7]; Exp 1, 100 mg/kg","14,7^x %"
same,Ind. Activité,"[7]; Exp 2, 0,1 mg/kg","1,31"
same,% d'augmentation du coussinet (mm) m,"[7]; Exp 2, 0,1 mg/kg","11,0%"
same,Ind. Activité,"[7]; Exp 2, 1 mg/kg","1,25"
same,% d'augmentation du coussinet (mm) m,"[7]; Exp 2, 1 mg/kg","10,5%"
same,Ind. Activité,"[7]; Exp 2, 10 mg/kg","1,34"
same,% d'augmentation du coussinet (mm) m,"[7]; Exp 2, 10 mg/kg","11,2%"
same,Ind. Activité,"[7]; Exp 2, 100 mg/kg","1,56"
same,% d'augmentation du coussinet (mm) m,"[7]; Exp 2, 100 mg/kg","13,1%"
same,action immunostimulante,[7]; overall statement in the text,une action immunostimulante
same,hypothermie induite par l'apomorphine,"souris [8]; 128 mg/kg, apomorphine 1 mg/kg s.c.",aggrave l'hypothermie induite par l'apomorphine
same,température,"souris [8]; 128 mg/kg, compound alone",entraîne une hypothermie
same,comportements de verticalisation et de stéréotypies,souris [8]; apomorphine 1 ou 16 mg/kg s.c.,NE SONT PAS MODIFIES
same,récupération motrice après anoxie hypobare,souris [9]; 32 et 128 mg/kg,amélioration est importante
same,récupération motrice après anoxie hypobare,souris [9]; dès la dose de 2mg/kg,amélioration de la récupération
